Our source for the EC90 values is patent publication US20100093076A1, “SOLUBLE IL-27 RECEPTOR” (priority 2006, published 2010).

The test system of experiment [1] is mouse spleens. The experiment in a line: IL-27 EC90 determination, phosphorylated STAT3 in mouse spleens. Format: cell-based. The settings on record: read-out: EC90 concentration. The source says:
(§1) Whole mouse spleens were harvested from C57 B1/6 mice and washed two times with 1×PBS before being plated out at 2×10^5 cells/well in assay media (RPMI 1640 plus 10% fetal bovine serum) in 96-well, round-bottom tissue culture plates. Total human PBMC (peripheral blood mononuclear cells) were thawed from a frozen vial collected from a leukapherisis donation and washed two times with 1×PBS before being plated out at 10^6 cells/well in assay media in 96-well, round-bottom tissue culture plates. […] Following pre-incubation, treatments were added to the plates containing the cells and incubated together at 37° C. for 15 minutes.
(§2) Following incubation, cells were washed with ice-cold wash buffer (BIO-PLEX Cell Lysis Kit, BIO-RAD Laboratories, Hercules, Calif.) and put on ice to stop the reaction according to manufacturer's instructions. […]
(§3) Capture beads (BIO-PLEX Phospho-Stat3 Assay, BIO-RAD Laboratories) were combined with 50 μL of 1:1 diluted lysates and added to a 96-well filter plate according to manufacture's instructions (BIO-PLEX Phosphoprotein Detection Kit, BIO-RAD Laboratories). […] After the final wash, beads were resuspended in 125 μL/well of bead suspension buffer, shaken for 30 seconds, and read on an array reader (BIO-PLEX, BIO-RAD Laboratories) according to the manufacture's instructions. Data were analyzed using analytical software (BIO-PLEX MANAGER 3.0, BIO-RAD Laboratories). […]

The test system of experiment [2] is total human PBMCs. The experiment in a line: IL-27 EC90 determination, phosphorylated STAT3 in total human PBMCs. The class given is cell-based. The settings on record: read-out: EC90 concentration.
Text: as §1, §2, §3

huIL-27: Human IL-27 (R&D Systems): the EC90 in experiment [1] and in experiment [2] was 2 nM each time.
